From PMC7241567 (Journal of Enzyme Inhibition and Medicinal Chemistry, 2020)
Entries after “also recorded” stand apart in the source; their conditions may differ.

How the values were obtained:
Assay type in all cases: biochemical
FLT3 = biological target: T1, FLT3 (Homo sapiens, UniProt P36888); assay: Reaction Biology Kinase HotSpot radiometric kinase assay; conditions: for IC50: FLT3 wild type, read-out: IC50 against FLT3
T1 construct: purchased Reaction Biology Corp. (Kinase HotSpot service)
T1 sequence (P36888 27-993): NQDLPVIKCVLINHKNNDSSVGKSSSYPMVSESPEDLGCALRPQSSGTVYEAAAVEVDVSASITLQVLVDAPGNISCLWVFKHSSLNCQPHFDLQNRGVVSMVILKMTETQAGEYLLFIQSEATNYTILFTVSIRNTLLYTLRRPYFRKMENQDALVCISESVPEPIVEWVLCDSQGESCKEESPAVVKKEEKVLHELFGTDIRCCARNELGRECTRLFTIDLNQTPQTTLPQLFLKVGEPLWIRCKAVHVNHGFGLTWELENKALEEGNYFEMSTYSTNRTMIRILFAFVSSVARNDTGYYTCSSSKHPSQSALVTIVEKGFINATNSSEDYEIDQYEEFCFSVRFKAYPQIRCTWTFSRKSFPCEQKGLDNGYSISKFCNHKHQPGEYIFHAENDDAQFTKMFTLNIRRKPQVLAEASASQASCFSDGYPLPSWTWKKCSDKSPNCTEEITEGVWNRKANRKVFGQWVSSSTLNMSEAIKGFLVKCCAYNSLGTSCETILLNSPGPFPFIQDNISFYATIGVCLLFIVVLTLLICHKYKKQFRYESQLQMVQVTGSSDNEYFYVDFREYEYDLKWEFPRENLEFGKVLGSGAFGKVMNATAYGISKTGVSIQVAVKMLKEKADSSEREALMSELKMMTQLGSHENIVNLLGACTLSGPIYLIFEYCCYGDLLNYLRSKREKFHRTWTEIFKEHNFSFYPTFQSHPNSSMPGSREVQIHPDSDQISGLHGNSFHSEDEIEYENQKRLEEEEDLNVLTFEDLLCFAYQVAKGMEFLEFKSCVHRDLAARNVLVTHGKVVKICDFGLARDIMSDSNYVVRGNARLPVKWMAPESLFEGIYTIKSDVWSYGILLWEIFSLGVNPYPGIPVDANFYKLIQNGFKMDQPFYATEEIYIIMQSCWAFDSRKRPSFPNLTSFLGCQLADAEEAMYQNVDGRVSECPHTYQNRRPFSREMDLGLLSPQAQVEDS

[1] = system: other kinases including FMS and cKit; assay: Kinase panel screening, overall selectivity; conditions: 36 different kinases, single dose of 10 µM
Procedure: Next, we investigated kinase panel screening of 7d and 7b over 36 different kinases at a single dose of 10 µM (Figure 5). […] High selectivity over cKit might be an opportunity to avoid myelosuppression toxicity, which was reported from a dual FLT3/cKit inhibitor[19–22]. It is a valuable result to secure such a kinase selectivity profile considering the similarities of the same type III receptor tyrosine kinase (FMS, cKit and FLT3).
3. Evaluation of IC50 and Selected Kinase Profiling
We used Reaction Biology Corp. Kinase HotSpotSM service (www.reactionbiology.com) for IC50 determination of all compounds and kinase profile. Assay protocol: In a final reaction volume of 25 μL, Peptide substrate, [[…]], 5 µM, ATP 10 µM, FLT3(h) (5-10 […]
mU) is incubated with 25 mM Tris pH 7.5, 0.02 mM EGTA, 0.66 mg/mL myelin basic protein, 10 mM Mg Acetate and [γ-33P-ATP] (specific activity approx. 500 cpm/pmol, concentration as required). The reaction is initiated by the addition of the Mg-ATP mix. After incubation for 40 minutes at room temperature, the reaction is stopped by the addition of 5 μL of a 3% phosphoric acid solution. 10 μL of the reaction is then spotted onto a P30 filtermat and washed three times for 5 minutes in 75 mM phosphoric acid and once in methanol prior to drying and […]

RIPK3 = biological target: T2, RIPK3 (Homo sapiens, UniProt Q9Y572); assay: Reaction Biology Kinase HotSpot radiometric kinase assay; conditions: read-out: GW5074 IC50, control compound, footnote a: data for GW5074
T2 construct: purchased Reaction Biology Corp. (Kinase HotSpot service)
T2 sequence (Q9Y572 whole entry): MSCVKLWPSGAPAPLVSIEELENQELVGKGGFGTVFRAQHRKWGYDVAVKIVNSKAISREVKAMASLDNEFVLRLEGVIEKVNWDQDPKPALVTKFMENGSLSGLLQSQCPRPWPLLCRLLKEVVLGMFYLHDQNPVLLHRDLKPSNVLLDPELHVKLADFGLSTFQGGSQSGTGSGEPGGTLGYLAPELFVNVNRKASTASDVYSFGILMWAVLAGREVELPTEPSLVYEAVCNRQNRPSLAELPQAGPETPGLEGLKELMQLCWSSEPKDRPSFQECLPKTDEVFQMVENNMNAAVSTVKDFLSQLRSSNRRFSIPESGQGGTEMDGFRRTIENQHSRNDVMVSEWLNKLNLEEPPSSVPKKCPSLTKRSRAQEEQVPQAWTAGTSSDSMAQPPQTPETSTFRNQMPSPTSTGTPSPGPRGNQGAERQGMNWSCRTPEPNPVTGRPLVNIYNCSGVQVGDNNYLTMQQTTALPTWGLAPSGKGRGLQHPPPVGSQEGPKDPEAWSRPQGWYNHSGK

ERK1 = biological target: T3, ERK1 (Homo sapiens, UniProt P27361); assay: as above; conditions: control compound, footnote b: data for SCH772984
T3 construct: purchased Reaction Biology Corp. (Kinase HotSpot service)
T3 sequence (P27361 whole entry): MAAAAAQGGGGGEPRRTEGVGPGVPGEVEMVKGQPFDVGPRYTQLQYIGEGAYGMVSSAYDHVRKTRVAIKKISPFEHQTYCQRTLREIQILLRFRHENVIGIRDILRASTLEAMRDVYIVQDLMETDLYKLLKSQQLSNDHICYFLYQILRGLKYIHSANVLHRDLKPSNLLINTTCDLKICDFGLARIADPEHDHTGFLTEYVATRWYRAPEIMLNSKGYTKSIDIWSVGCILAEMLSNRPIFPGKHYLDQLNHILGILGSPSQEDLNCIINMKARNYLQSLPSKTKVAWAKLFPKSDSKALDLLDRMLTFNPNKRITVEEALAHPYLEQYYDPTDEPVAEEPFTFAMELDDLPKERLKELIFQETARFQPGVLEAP

Compound	inhibitory activity towards FLT3 (in words) (FLT3)	IC50 (FLT3)	further results
Cc1oncc1C(=O)Nc1ccc2cnc(-c3cc(N4CCOCC4)cc(C(F)(F)F)c3)nc2c1 [Compound 7b]	maintained the activity; also recorded: maintained inhibitory activity	3980 nM	activity on other kinases in panel (in words) [1]: almost no activity
Cc1cn(-c2cc(-c3ncc4ccc(NC(=O)c5cnoc5C)cc4n3)cc(C(F)(F)F)c2)cn1 [Compound 7c]	maintained the activity; also recorded: maintained inhibitory activity	1580 nM	
CCN1CCN(Cc2cc(-c3ncc4ccc(NC(=O)c5cnoc5C)cc4n3)cc(C(F)(F)F)c2)CC1 [Compound 7e]	maintained the activity; also recorded: maintained inhibitory activity		decrease of activity towards FLT3 relative to 7d (FLT3; compared with 7d): about 10 fold
Cc1oncc1C(=O)Nc1ccc2cnc(-c3cnn(-c4ccccc4)c3C(F)(F)F)nc2c1 [Compound 7h]	loss of activity		
COc1ccc(/C=C/c2ncc3ccc(NC(=O)c4cnoc4C)cc3n2)cc1 [Compound 7j]	maintained inhibitory activity	4700 nM	
Cc1oncc1C(=O)Nc1ccc2cnc(-c3cc(C(C)(C)C)on3)nc2c1 [Compound 7l]	did not show inhibitory activity towards FLT3 or were very weak		
Cc1oncc1C(=O)Nc1ccc2cnc(-c3ccc4[nH]ncc4c3)nc2c1 [Compound 7m]	maintained inhibitory activity	790 nM	
Cc1oncc1C(=O)Nc1ccc2cnc(-c3cc(OC4CCN(C)CC4)cc(C(F)(F)F)c3)nc2c1 [Compound 7n]	maintained the activity; also recorded: maintained inhibitory activity	3590 nM	
CC(=O)N1CCC(c2ncc3ccc(NC(=O)c4cnoc4C)cc3n2)CC1 [Compound 7o]	did not show inhibitory activity towards FLT3 or were very weak		
Cc1oncc1C(=O)Nc1ccc2cnc(-c3ccncc3)nc2c1 [Compound 7p]	did not show inhibitory activity towards FLT3 or were very weak		
Cc1oncc1C(=O)Nc1ccc2cnc(-c3ccccn3)nc2c1 [Compound 7q]	did not show inhibitory activity towards FLT3 or were very weak		
O=C1Nc2ccc(I)cc2/C1=C/c1cc(Br)c(O)c(Br)c1 [GW5074, reference compound]			IC50 (RIPK3): 1650 nM
O=C(Nc1ccc2[nH]nc(-c3ccncc3)c2c1)[C@@H]1CCN(CC(=O)N2CCN(c3ccc(-c4ncccn4)cc3)CC2)C1 [SCH772984, reference compound]			IC50 (ERK1): 4.47 nM
